Source: ChEMBL document CHEMBL1201862, “PubChem BioAssay data set” (2004)
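These data come from cells grown in 96-well plates and exposed to compound for 48 hours at five concentrations. The concentration for 50% growth inhibition is given as GI50.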 Active and inactive are the calls of the source. Rule as the data show it: active = GI50 up to about 1.1 µM and inactive = higher.

Experiments:
Assay in all cases: DTP human tumour cell line panel, 48 h
[1] = tested on: UACC-62
[2] = tested on: 786-0
[3] = tested on: K562
[4] = tested on: RPMI-8226
[5] = tested on: SF-295
[6] = tested on: Malme-3M
[7] = tested on: DU-145
[8] = tested on: IGROV-1
[9] = tested on: SF-539
[10] = tested on: UO-31
[11] = tested on: OVCAR-8
[12] = tested on: NCI/ADR-RES
[13] = tested on: PC-3
[14] = tested on: LOX IMVI
[15] = tested on: SNB-75
[16] = tested on: HCC 2998
[17] = tested on: CAKI-1
[18] = tested on: OVCAR-3
[19] = tested on: OVCAR-5
[20] = tested on: SNB-19

| Structure (SMILES) | GI50 [1] | GI50 [2] | GI50 [3] | GI50 [4] | GI50 [5] | GI50 [6] | GI50 [7] | GI50 [8] | GI50 [9] | GI50 [10] | GI50 [11] | GI50 [12] | GI50 [13] | GI50 [14] | GI50 [15] | GI50 [16] | GI50 [17] | GI50 [18] | GI50 [19] | GI50 [20] |
| --- | --- | --- | --- | --- | --- | --- | --- | --- | --- | --- | --- | --- | --- | --- | --- | --- | --- | --- | --- | --- |
| Cc1c(CNc2ccc(C(=O)NC(CC(=O)O)C(=O)O)cc2)ccc2nc(N)nc(N)c12 (stereo not drawn) | < 0.01 µM (active) | < 0.164 µM (active) | 0.0101 µM (active) | < 0.0182 µM (active) | < 0.0106 µM (active) | 31 µM (inactive) | < 0.01 µM (active) | < 0.01 µM (active) | 0.0127 µM (active) | < 0.018 µM (active) | < 0.01 µM (active) | < 0.01 µM (active) | 13.4 µM (inactive) | < 0.01 µM (active) | 32.5 µM (inactive) | < 0.01 µM (active) |  |  |  |  |
| CCCCSC1=N/C(=C\c2ccc(N(C)C)cc2)C(=O)N1 | 20.7 µM (inactive) | 17.9 µM (inactive) | 44.8 µM (inactive) | 16.7 µM (inactive) | 28.4 µM (inactive) | 38.4 µM (inactive) | 60.1 µM (inactive) | 35.3 µM (inactive) | 24.5 µM (inactive) |  | 54.1 µM (inactive) | 82.6 µM (inactive) | 0.256 µM (active) | 28.6 µM (inactive) | 35.5 µM (inactive) |  | 35.6 µM (inactive) | 27 µM (inactive) | 24.4 µM (inactive) | 31.7 µM (inactive) |
| CN(C)C(=O)OC(Cn1cncn1)(Cn1cncn1)c1ccc(Cl)cc1Cl |  | > 100 µM (inactive) | > 100 µM (inactive) | > 100 µM (inactive) | > 100 µM (inactive) |  | > 100 µM (inactive) | > 100 µM (inactive) | > 100 µM (inactive) | > 100 µM (inactive) | > 100 µM (inactive) | > 100 µM (inactive) | > 100 µM (inactive) | > 100 µM (inactive) | > 100 µM (inactive) | > 100 µM (inactive) | > 100 µM (inactive) | > 100 µM (inactive) | > 100 µM (inactive) | > 100 µM (inactive) |
| CC(C)=CCc1cc2c(cc1O)OC[C@H]1c3cc4c(cc3O[C@@H]21)OCO4 | > 100 µM (inactive) | 42.1 µM (inactive) | 36.7 µM (inactive) |  | > 100 µM (inactive) |  | 38.8 µM (inactive) | > 100 µM (inactive) | 36.7 µM (inactive) | 31.6 µM (inactive) | > 100 µM (inactive) | 29.8 µM (inactive) | 23.3 µM (inactive) | 17.3 µM (inactive) | 78.7 µM (inactive) | > 10 µM (inactive) | 25.1 µM (inactive) | 37.2 µM (inactive) | 61.7 µM (inactive) | 66.1 µM (inactive) |
| CCOC(=O)Cc1cc(=O)oc2cc(O)ccc12 | > 100 µM (inactive) | > 100 µM (inactive) | > 100 µM (inactive) | > 100 µM (inactive) | > 100 µM (inactive) | > 100 µM (inactive) | > 100 µM (inactive) | > 100 µM (inactive) | > 100 µM (inactive) | > 100 µM (inactive) | > 100 µM (inactive) | > 100 µM (inactive) | > 100 µM (inactive) | > 100 µM (inactive) | > 100 µM (inactive) |  | > 100 µM (inactive) | > 100 µM (inactive) | 59.4 µM (inactive) | > 100 µM (inactive) |
| CNC(=O)c1nnn(Cc2ccccc2)c1S | > 100 µM (inactive) | > 100 µM (inactive) | > 100 µM (inactive) | > 100 µM (inactive) | > 100 µM (inactive) |  | > 100 µM (inactive) | > 100 µM (inactive) |  | > 100 µM (inactive) | > 100 µM (inactive) | > 100 µM (inactive) | > 100 µM (inactive) |  | > 100 µM (inactive) | > 100 µM (inactive) | > 100 µM (inactive) | > 100 µM (inactive) | > 100 µM (inactive) | > 100 µM (inactive) |
| NC(=O)C(c1ccccc1)N1OC2C(=O)N(c3cccc4ccccc34)C(=O)C2C1c1c2ccccc2c(Cl)c2ccccc12 (stereo not drawn) | 6.93 µM (inactive) | 10.2 µM (inactive) | 8.15 µM (inactive) |  | 9.75 µM (inactive) | 11.6 µM (inactive) | 14.5 µM (inactive) | 11.7 µM (inactive) | 5.24 µM (inactive) | 12 µM (inactive) | 9.29 µM (inactive) | 5.15 µM (inactive) | 6.98 µM (inactive) | 6.1 µM (inactive) | 8.97 µM (inactive) |  | 5.28 µM (inactive) | 7.91 µM (inactive) | 9.66 µM (inactive) | 8.22 µM (inactive) |
| Nc1nc(Cl)cc(NCC2(CO)CCCCC2)n1 | > 100 µM (inactive) | > 100 µM (inactive) | 94 µM (inactive) | 97.5 µM (inactive) | > 100 µM (inactive) | > 100 µM (inactive) | > 100 µM (inactive) | > 100 µM (inactive) | > 100 µM (inactive) | > 100 µM (inactive) | > 100 µM (inactive) | 39.7 µM (inactive) | 83.4 µM (inactive) | 49.3 µM (inactive) | > 100 µM (inactive) |  | > 100 µM (inactive) | > 100 µM (inactive) | > 100 µM (inactive) | > 100 µM (inactive) |
| Oc1nc2nnc(COc3ccc(Cl)cc3Cl)n2nc1Cc1ccccc1 |  | 20.8 µM (inactive) | > 100 µM (inactive) | > 100 µM (inactive) | 32.3 µM (inactive) | > 100 µM (inactive) | > 100 µM (inactive) | 24.2 µM (inactive) | 20.1 µM (inactive) | 24.2 µM (inactive) | 26.1 µM (inactive) | 43.1 µM (inactive) | > 100 µM (inactive) | > 100 µM (inactive) | 16 µM (inactive) |  | > 100 µM (inactive) | 27.5 µM (inactive) | > 100 µM (inactive) | 31.6 µM (inactive) |
| Cc1cn(CC2=NCC(C)(C)N2)c(=O)[nH]c1=O | > 100 µM (inactive) | > 100 µM (inactive) | > 100 µM (inactive) | > 100 µM (inactive) | > 100 µM (inactive) | > 100 µM (inactive) | > 100 µM (inactive) | > 100 µM (inactive) |  | > 100 µM (inactive) | > 100 µM (inactive) | > 100 µM (inactive) | > 100 µM (inactive) | > 100 µM (inactive) | > 100 µM (inactive) | > 100 µM (inactive) |  |  | > 100 µM (inactive) | > 100 µM (inactive) |
| CSC(=N/C=C/c1ccccc1)SC | > 100 µM (inactive) | > 100 µM (inactive) | 72.8 µM (inactive) | > 100 µM (inactive) | > 100 µM (inactive) | > 100 µM (inactive) | > 100 µM (inactive) | 73.6 µM (inactive) | > 100 µM (inactive) | > 100 µM (inactive) | > 100 µM (inactive) | > 100 µM (inactive) | 64.3 µM (inactive) | 50.5 µM (inactive) | > 100 µM (inactive) |  | > 100 µM (inactive) | 51.4 µM (inactive) | > 100 µM (inactive) | > 100 µM (inactive) |
| NS(=O)(=O)c1ccc(/N=N/c2cc3ccccc3c(C(=O)O)c2O)cc1 | > 55.7 µM (inactive) | > 55.8 µM (inactive) | > 100 µM (inactive) | > 100 µM (inactive) | > 100 µM (inactive) | > 56.9 µM (inactive) | > 46 µM (inactive) | 41.6 µM (inactive) | > 100 µM (inactive) | > 49.8 µM (inactive) | > 56.8 µM (inactive) | > 64.1 µM (inactive) | > 48.3 µM (inactive) | > 54.5 µM (inactive) | > 60.7 µM (inactive) |  | > 100 µM (inactive) | > 47.8 µM (inactive) | > 54.3 µM (inactive) | > 64.9 µM (inactive) |
| O=C1NC(Cc2ccc(O)cc2)C(=O)NC1Cc1ccc(O)cc1 (stereo not drawn) | > 100 µM (inactive) | > 100 µM (inactive) | > 100 µM (inactive) | > 100 µM (inactive) | > 100 µM (inactive) | > 100 µM (inactive) | 24.8 µM (inactive) | > 100 µM (inactive) | > 100 µM (inactive) | > 100 µM (inactive) | > 100 µM (inactive) | > 100 µM (inactive) | > 100 µM (inactive) | > 100 µM (inactive) | 28.2 µM (inactive) |  | > 100 µM (inactive) | > 100 µM (inactive) | > 100 µM (inactive) | > 100 µM (inactive) |
| COC(=O)[C@@H](OC(C)=O)[C@@H](OC(C)=O)c1nnc2ccc(Cl)nn12 | > 100 µM (inactive) | > 100 µM (inactive) |  | 62.2 µM (inactive) | > 100 µM (inactive) | > 100 µM (inactive) | > 100 µM (inactive) | 85.3 µM (inactive) | > 100 µM (inactive) |  | > 100 µM (inactive) | > 100 µM (inactive) | > 100 µM (inactive) | > 100 µM (inactive) |  | 36.2 µM (inactive) | 92 µM (inactive) | > 100 µM (inactive) | > 100 µM (inactive) | > 100 µM (inactive) |
| COc1cc2c(c(OC)c1)/C(=C/Sc1ccccc1)C(=O)N(C(C)(C)C)C2 | 24.3 µM (inactive) | 28.5 µM (inactive) | 37.8 µM (inactive) | 26.1 µM (inactive) | 27.2 µM (inactive) |  | > 100 µM (inactive) | 22.3 µM (inactive) | 44.7 µM (inactive) |  | 25.6 µM (inactive) | 11.7 µM (inactive) | 22.4 µM (inactive) | 18.8 µM (inactive) |  | 37.8 µM (inactive) | 32.7 µM (inactive) | 22.5 µM (inactive) | 52.6 µM (inactive) |  |
